Measurements: ChEMBL document CHEMBL3507680, “University of Dundee, Gates Library screen for HepG2 cell viability”

Experiment: Human HepG2 cell viability assay in 384 well format
Format: toxicity, cell-based
Parameters: dose 125 nL, time 70.5 hour; cytotoxicity at 70.5 h: concentration not given beside the values
Details: HepG2 cells, read-out: Inhibition

Row | SMILES | cytotoxicity at 70.5 h
1 | CCC(CC)C(=O)c1c[nH]c(C(=O)N2CCN(c3ccccc3)CC2)c1 | -3.31%
2 | N#Cc1c(Cl)nsc1NCCN1CCOCC1 | -10.1%
3 | Cc1nn(C)cc1S(=O)(=O)N[C@@H]1CCC[C@@H](n2ccnc2)[C@@H]1O | -6.03%
4 | Cc1ccnn1CCC(=O)N1CCCC[C@@]2(C)[C@@H]1CCC(=O)N2C | -4.62%
5 | CC(C)N1CCCC(Cc2nccnc2Cl)C1 (stereo not drawn) | -4.45%
6 | CN1CC(=O)N(C2CCNCC2)Cc2c(NCC(C)(C)C)ncnc21 | -9.73%
7 | CC(C)CC(=O)Nc1ccc(Oc2ccsc2C(=O)O)cc1 | 1.56%
8 | COCC(=O)Nc1ccc(Oc2ccsc2C(=O)O)cc1 | -6.01%
9 | COc1ncc(C(F)(F)F)c(C(=O)O)c1Cl | 24.8%
10 | COC(=O)c1ccc(-c2cc(C(F)(F)F)cc(N(C)C)n2)cc1 | -6.66%
11 | COc1cc(OC)cc(-c2cc(N)on2)c1 | -7.45%
12 | CCOC(=O)[C@H]1CNC[C@@H]1C(=O)OCC | 3.89%
13 | OCc1cn(Cc2cccc(F)c2)nn1 | -12.4%
14 | CC(O)c1cn(Cc2ccc(F)cc2)nn1 (stereo not drawn) | -4.74%
15 | OC1(CNc2ccccc2)CCNCC1 | -7.62%
16 | N#Cc1cc2cc(Cl)cnc2nc1O | -12%
17 | O=C(CC(SC1CCCCC1)C(=O)O)c1ccc(Cl)cc1 (stereo not drawn) | -4.64%
18 | CCOc1ccc(C(=O)CC(SC2CCCCC2)C(=O)O)cc1 (stereo not drawn) | -6.29%
19 | CNc1nc2ncc(Cl)cc2cc1C#N | -2.12%
20 | COc1ccc(NCC2(O)CCNCC2)cc1OC | 6.97%
21 | CCSCCN1CCCN(S(C)(=O)=O)CC1 | -2.21%
22 | CCOc1nnc(CN(CC)CC(=O)NC(C)(C)C)s1 | 10.3%

Row | SMILES | cytotoxicity at 70.5 h
23 | N#CCCn1cnc2c(Br)cc(Br)cc2c1=O | -3.9%
24 | Cc1cc(F)c2c(c1)CCCN2Cc1cc(=O)n(C)c(=O)n1C | -8.84%
25 | CC(C)c1nnc(NC(=O)N(C)Cc2ccc(C(N)=O)cc2)s1 | -4.8%
26 | CC(C)c1nnc(NC(=O)N(C)Cc2ccncc2)s1 | -9.39%
27 | CCN(CC1CCOC1)C(=O)NCc1nnc2n1CCCCC2 (stereo not drawn) | -7.23%
28 | CCOc1nnc(CN(CC)CC(=O)Nc2c(F)cccc2F)s1 | -5.55%
29 | Cc1ccc(S(=O)(=O)N2CCN(CCC(N)=O)CC2)s1 | -7.66%
30 | CCN(CC1CCOC1)C(=O)NCc1nnc2n1CCC2 (stereo not drawn) | -5.15%
31 | COc1ccc(N2CCC(N(C)C(=O)Nc3ccncc3)CC2)cc1 | 0.31%
32 | Cc1ccc(F)c2c1CCCN2Cc1cc(=O)n(C)c(=O)n1C | -7.78%
33 | CN(C(=O)Nc1cccnc1)C1CCN(c2ccc(Cl)cc2)CC1 | 0.04%
34 | Cn1cc(C2CCCN2C(=O)c2cnc(-c3ccco3)s2)cn1 (stereo not drawn) | -4.49%
35 | CCn1cc(S(=O)(=O)Nc2nc3c(s2)CC(C)CC3)cn1 (stereo not drawn) | -6.65%
36 | Cc1ccccc1-n1cnc(Cl)c1CO | 18.4%
37 | c1ccc(-c2nc(CCNCc3cccnc3)co2)cc1 | -4.67%
38 | Cc1cc(NCCSc2nccn2C)n2ncnc2n1 | 17.1%
39 | c1ccc(-c2nc(CCNCc3ccncc3)co2)cc1 | -5.13%
40 | COc1ccc(Br)cc1SCCS(C)(=O)=O | -4.19%
41 | Cc1ccc2c(c1)OC(C)CN2C(=O)c1c[nH]c(C)cc1=O (stereo not drawn) | 2.52%
42 | CC1c2ccc(F)cc2CCN1C(=O)c1[nH]c(=O)[nH]c(=O)c1N (stereo not drawn) | -1.6%
43 | CC1c2cc(F)ccc2CCN1C(=O)c1[nH]c(=O)[nH]c(=O)c1N (stereo not drawn) | -2.24%
44 | Cc1[nH]ccc1C(=O)N1CCOCC12CCCC2 | -0.873%

Row | SMILES | cytotoxicity at 70.5 h
45 | O=C(c1ccc[nH]1)N1CCOCC12CCCC2 | 30.2%
46 | Cc1ccc(C(=O)Nc2ccc3c(c2)N(C)CCN(C)C3)c(=O)[nH]1 | -7.32%
47 | COCCN(Cc1ccccc1)C(=O)c1csc(-c2nnc[nH]2)n1 | -5.25%
48 | CC1CCCCN1C(=O)c1ccc(=O)[nH]n1 (stereo not drawn) | -5.98%
49 | CCc1nnsc1C(=O)N(C)Cc1nnc2n1CCC2 | 5.35%
50 | O=C(O)c1cc(NS(=O)(=O)c2ccccc2F)ccc1N1CCSCC1 | -8.7%
51 | Cc1cccc(CS(=O)(=O)CC(O)Cn2cccn2)c1 (stereo not drawn) | -4.24%
52 | CC(C)c1nc(CS(=O)(=O)Cc2noc(C3CC3)n2)cs1 | -13.6%
53 | CN1CCN(c2ccccc2CNC(=O)Cc2ccccc2F)CC1 | -5.79%
54 | N#CCCSc1nnc(Cc2ccccc2F)o1 | -3.12%
55 | CCNC(=O)Nc1ccc(N2CCC(OC)CC2)c(C(F)(F)F)c1 | -1.82%
56 | Fc1ccc(-c2noc(C3COCCO3)n2)cc1F (stereo not drawn) | -1.66%
57 | CCc1cc(N2CCC(Nc3ccc(Cl)cn3)CC2)ncn1 | 12.5%
58 | CC(C)(C)c1cc(NC(=O)NCCc2nnc3n2CCC3)c(C#N)s1 | 8.88%
59 | Cc1ccc(Br)cc1NC(=O)NCC(O)CO (stereo not drawn) | 3.24%
60 | CC(C)c1cc(Br)ccc1NC(=O)NCC(O)CO (stereo not drawn) | -3.27%
61 | CS(=O)(=O)CCSc1nnc(Cc2ccccc2F)o1 | -1.57%
62 | COc1ccc(C(C)NCc2cccs2)cc1Cn1cccn1 (stereo not drawn) | 15.6%
63 | COCC(=O)Nc1ccc(N2CCC(OC)CC2)c(C(F)(F)F)c1 | -0.835%
64 | CCc1nc(CN2CCCN(Cc3noc(C4CC4)n3)CC2)cs1 | -0.776%
65 | Cc1cnn(CC(C)NCc2ccc(C#N)cc2)c1 (stereo not drawn) | 0.599%
66 | COc1cccc(OCC(=O)N2CCOc3ccncc32)c1 | 13.2%

Row | SMILES | cytotoxicity at 70.5 h
67 | Cc1nc(CN(Cc2ccccc2F)C2CCC2)no1 | -3.66%
68 | CCN(C(=O)Cn1cc(Cl)cn1)c1ccccc1 | 5.93%
69 | CC(C)N1CCCC(CNC(=O)CN(C)S(=O)(=O)c2ccccc2)C1 (stereo not drawn) | -5.65%
70 | Cc1ccccc1SCC(=O)NC1CCC(O)CC1 (stereo not drawn) | 7.04%
71 | O=C1NCC(C(=O)NCc2ccccc2CN2CCOCC2)N1 (stereo not drawn) | -4.6%
72 | O=C(COCc1ccccc1)NCc1ccc(O)c(F)c1 | -0.734%
73 | CN1CCN(CCOc2ccc(NC(=O)c3ccncc3)cc2)CC1 | -3.29%
74 | COc1ncccc1N(C)C(=O)Cn1cc(-c2ccccc2)nn1 | -4.75%
75 | CC(C)c1noc(CN2CCN(C(=O)OC(C)(C)C)C(C)C2)n1 (stereo not drawn) | 7.76%
76 | CCc1ccc(C(=O)NCC2CCCN2CC)o1 (stereo not drawn) | -3.5%
77 | Cc1cc(CN(C)C(=O)CC(C)C)no1 | -2.9%
78 | CC(=O)N1CCCN(C(=O)NC(C)Cn2ccnc2)CC1 (stereo not drawn) | -4.31%
79 | CC(=O)N1CCN(CCNC(=O)NC(C)Cn2ccnc2)CC1 (stereo not drawn) | -2.74%
80 | COc1ccccc1CC(C)CC(=O)N(C)Cc1cc(C)on1 (stereo not drawn) | 2.26%
81 | COc1ccc(CN(C)C(=O)CN2CC(n3cccn3)C2)cc1F | -0.231%
82 | COc1ccccc1CC(=O)N(C)Cc1cc(C)on1 | -3.86%
83 | N#Cc1cccnc1NCCNC(=O)NCCSC(F)(F)F | -10.1%
84 | CC(=O)N1CCN(C(=O)c2sccc2Br)CC1 | 15.1%
85 | CN(CC(=O)NCCC#N)C(c1ccccc1)c1ccc(F)cc1 (stereo not drawn) | -15.7%
86 | Cc1n[nH]c(C)c1CNCC(O)c1ccc(F)c(F)c1 (stereo not drawn) | -3.32%
87 | CC(C)N(CC(N)=O)Cc1c(Cl)ccc2cccnc12 | -8.03%
88 | COC(=O)c1ccc(N2CCN(Cc3csc(C)n3)CC2)nn1 | -14.7%
